Measured values taken from ChEMBL document CHEMBL1146988, “The spermicidal and antitrichomonas activities of SSRI antidepressants” (2006).

What was measured:
Trichomonas vaginalis = assay: Antitrichomonas activity against Trichomonas vaginalis after 48 hrs; assay type: functional
Spermatozoa = assay: Spermicidal activity against human spermatozoa; assay type: functional

SMILES	MLC (Trichomonas vaginalis) [%]	MEC (Spermatozoa) [%]	ED50 (Spermatozoa) [%]	MLC50 (Trichomonas vaginalis) [%]
CNCCC(Oc1ccc(C(F)(F)F)cc1)c1ccccc1.Cl (stereo unspecified) [FLUOXETINE HYDROCHLORIDE]	0.003	–	–	–
Cl.NCCc1c[nH]c2ccc(O)cc12 [SEROTONIN HYDROCHLORIDE]	–	>1	–	–
COCCCC/C(=N\OCCN)c1ccc(C(F)(F)F)cc1.O=C(O)/C=C\C(=O)O [FLUVOXAMINE MALEATE]	0.005	0.1	0.005	0.003
CN[C@H]1CC[C@@H](c2ccc(Cl)c(Cl)c2)c2ccccc21.Cl [SERTRALINE HYDROCHLORIDE]	0.003	0.5	–	0.0012
CCCCCCCCCc1ccc(OCCOCCOCCOCCOCCOCCOCCOCCOCCO)cc1 [NONOXYNOL 9]	0.002	0.05	0.01	0.0009
Cl.Cl.Fc1ccc([C@@H]2CCNC[C@H]2COc2ccc3c(c2)OCO3)cc1.Fc1ccc([C@@H]2CCNC[C@H]2COc2ccc3c(c2)OCO3)cc1.O [PAROXETINE HYDROCHLORIDE]	>0.01	0.1	0.008	–
